pIC50: −log10 of the molar value.
These molecules were tested against T1, HDAC2 Human recombinant C-terminal FLAG-tag (Homo sapiens, UniProt Q92769) (assay: Measurement of HDAC2 enzyme inhibitory activity (HTRF)). Conditions: recombinant HDAC2, H3K9ac peptide, 3 hours room temperature; read-out: HDAC2 IC50.
T1 construct: FLAG (C); purchased BPS Bioscience 50052
Assay type: biochemical
Protocol: Test Example 1: Measurement of HDAC2 Enzyme Inhibitory Activity
The HDAC2 enzyme inhibitory activity was measured by the method described in the following test example.
To each well of a 384-well plate (Corning, 4514), DMSO solution of the test compound was dispensed at 50 nL/well from a final concentration of 99 μM to 8 points (n=2) in the 3-fold dilution series using Echo555 (Beckman Coulter). 2.5 μl of 0.005 mg/mL recombinant enzyme HDAC2 (HDAC2 Human recombinant C-terminal FLAG-tag, BPS Bioscience, 50052) was added to each well, 2.5 μl of 0.6 μM H3K9ac peptide (Lys(Ac)9-Histone H3 (1-21)-GGK(Biotin), AnaSpec, 64361) was added, mixed, and reacted in a wet box at room temperature for 3 hours. 50 mM Tris HCL pH8.0, 137 mM sodium chloride, 2.7 mM potassium chloride, 1 mM magnesium chloride, 0.01% Tween20, and 0.1% BSA which were diluted with ultrapure water were used as a reaction buffer at this time. After the reaction, 5 μL of 10 μM SAHA (suberoylanilide hydroxamic acid) as a reaction terminator and the 5 μL of a mixture of 2.5 ng of H3K9me0 antibody (ActiveMotif, 61399) labeled in-house with europium cryptate (Cisbio, 65EUSABA) and 125 nM streptavidin-XL665 (Cisbio, 610SAXLA) as an HTRF (time-resolved fluorescence) reagent were added to each well, mixed, and allowed to stand in a wet box at room temperature for reaction. A detection buffer used at this time was 50 mM Tris HCL pH 8.0, 0.8 M potassium fluoride, and 0.1% BSA which were diluted with ultrapure water. After reacting for 2 hours or more, HTRF was measured using a multi-plate reader such as SpectraMax Paradigm (MOLECULAR DEVICE) or RUBYstar (BMG LABTECH). Ratio (665 nm/615-620 nm×10000) was calculated from the fluorescence values of two wavelengths, 615-620 nm and 665 nm, which were excited at 320-340 nm, and the energy transition was obtained.

T1 sequence (Q92769 whole entry): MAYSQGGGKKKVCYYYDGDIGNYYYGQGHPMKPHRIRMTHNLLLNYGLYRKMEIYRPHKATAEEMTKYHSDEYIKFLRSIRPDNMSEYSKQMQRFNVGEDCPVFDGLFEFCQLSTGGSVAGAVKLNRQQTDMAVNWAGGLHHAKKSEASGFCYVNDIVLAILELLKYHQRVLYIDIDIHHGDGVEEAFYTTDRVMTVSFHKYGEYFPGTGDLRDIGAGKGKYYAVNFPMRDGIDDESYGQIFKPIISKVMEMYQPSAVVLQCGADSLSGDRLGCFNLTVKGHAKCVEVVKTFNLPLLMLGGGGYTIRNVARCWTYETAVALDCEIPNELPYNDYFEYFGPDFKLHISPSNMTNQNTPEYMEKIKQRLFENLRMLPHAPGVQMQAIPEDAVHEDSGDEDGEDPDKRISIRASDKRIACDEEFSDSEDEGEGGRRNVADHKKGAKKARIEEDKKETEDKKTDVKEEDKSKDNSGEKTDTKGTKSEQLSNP

SMILES | pIC50
Cn1cc(-c2ccc(C(=O)Nc3cc(-c4cccs4)ccc3N)nc2)nn1 [Compound I-001] | 7.25
Cn1cc(-c2ccc(C(=O)Nc3cc(-c4ccco4)ccc3N)nc2)nn1 [Compound I-002] | 7.27
Cn1cc(-c2ccc(C(=O)Nc3cc(-c4cnco4)ccc3N)nc2)cn1 [Compound I-004] | 7.19
Cn1cc(-c2cnc(C(=O)Nc3cc(-c4cccs4)ccc3N)cn2)cn1 [Compound I-007] | 7.02
Cn1cc(-c2cnc(C(=O)Nc3cc(-c4cnco4)ccc3N)cn2)cn1 [Compound I-009] | 7.21
Cn1cc(-c2cnc(C(=O)Nc3cc(-n4cccc4)ccc3N)cn2)cn1 [Compound I-013] | 7.00
Nc1ccc(-c2cncs2)cc1NC(=O)c1ccc(C(F)(F)F)cn1 [Compound I-020] | 6.59
Nc1ccc(-c2cncs2)cc1NC(=O)c1ccc(OC(F)(F)F)cn1 [Compound I-021] | 6.66
Cn1cc(-c2cnc(C(=O)Nc3nc(-c4cccs4)ccc3N)c(F)c2)cn1 [Compound I-022] | 6.33
Cn1cc(-c2ccc(C(=O)Nc3nc(-n4cccc4)ccc3N)nc2)cn1 [Compound I-025] | 6.43
Cn1cc(-c2cnc(C(=O)Nc3nc(-c4ccco4)ccc3N)cn2)cn1 [Compound I-026] | 6.49
Cn1cc(-c2ccc(C(=O)Nc3cc(-c4ccc(F)nc4)ccc3N)nc2)cn1 [Compound I-033] | 7.06
Cn1cc(-c2ccc(C(=O)Nc3cc(-c4cnn(C)c4)ccc3N)nc2)cn1 [Compound I-037] | 6.74
Cn1cc(-c2cnc(C(=O)Nc3nc(-c4ccccc4)ccc3N)cn2)cn1 [Compound I-039] | 6.38
Cn1cc(-c2ccc(C(=O)Nc3cc(-c4cncs4)ccc3N)nc2)nn1 [Compound I-046] | 7.27
C#Cc1ccc(C(=O)Nc2cc(-c3cncs3)ccc2N)nc1 [Compound I-058] | 6.89
Cn1cc(-c2ccc(C(=O)Nc3cc(-n4cccn4)ccc3N)nc2)cn1 [Compound I-063] | 6.57

Further molecules by rising pIC50, results first:

pIC50 | SMILES
6.49 | CCCCc1ccc(C(=O)Nc2cc(-c3cncs3)ccc2N)nc1 [Compound I-057]
6.55 | Cn1cc(-c2ccc(C(=O)Nc3nc(-c4cccs4)ccc3N)nc2)nn1 [Compound I-034]
6.66 | Cn1cc(-c2ccc(C(=O)Nc3cc(-c4ccco4)ccc3N)nc2)cn1 [Compound I-005]
6.68 | Cn1cc(-c2ccc(C(=O)Nc3nc(-c4cncs4)ccc3N)nc2)cn1 [Compound I-061]
6.70 | Cn1cc(-c2cnc(C(=O)Nc3cc(-c4cccs4)ccc3N)nc2)cn1 [Compound I-014]
6.80 | Cn1cc(-c2cnc(C(=O)Nc3cc(-c4cccs4)ccc3N)c(F)c2)cn1 [Compound I-016]
6.85 | Cc1ncc(-c2ccc(N)c(NC(=O)c3ccc(-c4cnn(C)c4)cn3)c2)s1 [Compound I-032]
6.89 | Cn1cc(-c2ccc(C(=O)Nc3cc(-c4cccs4)ccc3N)nn2)cn1 [Compound I-027]
6.92 | Cn1cc(-c2cnc(C(=O)Nc3cc(-c4ccco4)ccc3N)cn2)cn1 [Compound I-008]
6.92 | Cn1cc(-c2ccc(C(=O)Nc3cc(-n4cccc4)ccc3N)nc2)cn1 [Compound I-056]
7.02 | Nc1ccc(-c2cncs2)cc1NC(=O)c1cnc2[nH]ccc2n1 [Compound I-064]
7.03 | Cn1cc(-c2cnc(C(=O)Nc3cc(-c4cnco4)ccc3N)cn2)nn1 [Compound I-012]
7.20 | Cn1cc(-c2ccc(C(=O)Nc3cc(-c4ccc(F)nc4)ccc3N)nc2)nn1 [Compound I-040]
7.24 | Cn1cc(-c2ccc(C(=O)Nc3cc(-c4cnco4)ccc3N)nc2)nn1 [Compound I-011]
7.33 | Nc1ccc(-c2cncs2)cc1NC(=O)c1cc2ccncc2cn1 [Compound I-060]
7.51 | Cn1cc(-c2cnc(C(=O)Nc3cc(-c4cncs4)ccc3N)cn2)cn1 [Compound I-010]
7.52 | Cn1cc(-c2ccc(C(=O)Nc3cc(-c4cncs4)ccc3N)nc2)nn1 [Compound I-047]

Source: patent US20230119479A1, “A HISTONE DEACETYLASE INHIBITOR HAVING A NITROGEN-CONTAINING AROMATIC HETEROCYCLYL GROUP” (SHIONOGI & CO., LTD., priority 2019, published 2023)
